Data reported in patent US20080004253A1, “Thiazolopyrimidine modulators of TRPV1” (priority 2006, published 2008).

Legend:
[1] = molecular target: T1, human TRPV1 (Homo sapiens, UniProt Q8NER1); assay: Functional assay: block of capsaicin-induced Ca2+ influx, human assay (hTRPV1/HEK293, FLIPR); format: cell-based; details: hTRPV1/HEK293 cells, 150 nM capsaicin challenge, Fluo-3 fluorescence; mean; > value = solubility limit in assay medium
T1 construct: expressed in transfected cells; host or cells: HEK293 (hTRPV1/HEK293), zeocin selection
T1 sequence (Q8NER1 whole entry): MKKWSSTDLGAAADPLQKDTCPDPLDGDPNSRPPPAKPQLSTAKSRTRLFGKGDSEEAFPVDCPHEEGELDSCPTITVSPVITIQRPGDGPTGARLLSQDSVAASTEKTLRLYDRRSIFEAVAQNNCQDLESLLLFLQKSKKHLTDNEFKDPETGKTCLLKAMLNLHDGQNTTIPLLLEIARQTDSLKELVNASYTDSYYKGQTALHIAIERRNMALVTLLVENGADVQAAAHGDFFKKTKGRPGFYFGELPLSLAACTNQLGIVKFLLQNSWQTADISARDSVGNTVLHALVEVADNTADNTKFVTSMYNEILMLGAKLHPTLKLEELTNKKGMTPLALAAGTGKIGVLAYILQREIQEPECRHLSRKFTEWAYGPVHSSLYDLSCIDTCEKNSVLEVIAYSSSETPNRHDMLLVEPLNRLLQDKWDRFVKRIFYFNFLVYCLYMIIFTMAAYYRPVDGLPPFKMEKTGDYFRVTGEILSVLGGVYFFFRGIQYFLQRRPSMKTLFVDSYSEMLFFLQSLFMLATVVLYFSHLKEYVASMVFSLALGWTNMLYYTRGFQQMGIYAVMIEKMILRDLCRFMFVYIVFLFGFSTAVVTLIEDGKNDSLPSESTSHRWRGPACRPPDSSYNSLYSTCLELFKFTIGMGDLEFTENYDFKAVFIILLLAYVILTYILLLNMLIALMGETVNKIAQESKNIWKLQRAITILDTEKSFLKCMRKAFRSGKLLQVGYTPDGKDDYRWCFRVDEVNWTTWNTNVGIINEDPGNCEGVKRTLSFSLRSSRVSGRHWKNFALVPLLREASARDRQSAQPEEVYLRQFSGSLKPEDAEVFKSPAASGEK
Description: (§1) Functional assay: block of capsaicin-induced Ca^2+ influx
(§2) HEK293 cells were transfected with human TRPV1 cloned in pcDNA3.1zeo(+) using the Effectene non-liposomal lipid based transfection kit (Qiagen) (hTRPV1/HEK293). hTRPV1/HEK293 cells were routinely grown as monolayers under selection in zeocin (200 μg/mL; Invitrogen) in Dulbecco's Modified Eagle Medium (DMEM, Gibco BRL) supplemented with 10% fetal bovine serum, and penicillin/streptomycin (50 units/mL) in 5% CO2 at 37° C. Cells were passaged frequently, every 3-5 days, to avoid overgrowth, depletion of essential medium components, or acidic medium exposure. Cells were passaged using a brief wash in 0.05% trypsin with 1 mM EDTA, followed by dissociation in divalent-free phosphate-buffered saline (Hyclone #SH30028.02). […] The assay buffer was composed of 130 mM NaCl, 2 mM KCl, 2 mM MgCl2, 10 mM HEPES, 5 mM glucose, and either 2 mM or 20 μM CaCl2. On the day of the experiment, the culture medium was replaced with 2 mM calcium assay buffer using an automated plate washer (ELx405; Biotek, VT). […] After loading the cells, the dye solution was replaced with 50 μL/well of 20 μM calcium assay buffer using the ELx405 plate washer. Test compounds (50 μL/well) were added to the plate and incubated for 30 min. […] The IC50 values were determined. […] The contents of the wells were mixed 3 times (40 μL mix volume) immediately after the additions were made. Concentration-dependence of block was determined by exposing each well of cells in duplicate rows of a 96-well plate to a serial dilution of test compound. The concentration series usually started at 10 μM with a three-fold serial decrement in concentration. The magnitude of the capsaicin response was determined by measuring the change in fluo3 fluorescence before and 100 seconds after the addition of the agonist. Data were analyzed using a non-linear regression program (Origin; OriginLab, MA).
(§3) IC50 values shown are the average (mean) of the results obtained. […] Compounds were tested in either the free base or trifluoroacetic acid salt form.

[2] = molecular target: T2, rat TRPV1 (Rattus norvegicus, UniProt O35433); assay: Functional assay: block of capsaicin-induced Ca2+ influx, rat assay (rTRPV1/HEK293, FLIPR); format: cell-based; details: rTRPV1/HEK293 cells, capsaicin challenge, Fluo-3 fluorescence; mean; > value = solubility limit in assay medium
T2 construct: expressed in transfected cells; host or cells: HEK293 (rTRPV1/HEK293), geneticin selection
T2 sequence (O35433 whole entry): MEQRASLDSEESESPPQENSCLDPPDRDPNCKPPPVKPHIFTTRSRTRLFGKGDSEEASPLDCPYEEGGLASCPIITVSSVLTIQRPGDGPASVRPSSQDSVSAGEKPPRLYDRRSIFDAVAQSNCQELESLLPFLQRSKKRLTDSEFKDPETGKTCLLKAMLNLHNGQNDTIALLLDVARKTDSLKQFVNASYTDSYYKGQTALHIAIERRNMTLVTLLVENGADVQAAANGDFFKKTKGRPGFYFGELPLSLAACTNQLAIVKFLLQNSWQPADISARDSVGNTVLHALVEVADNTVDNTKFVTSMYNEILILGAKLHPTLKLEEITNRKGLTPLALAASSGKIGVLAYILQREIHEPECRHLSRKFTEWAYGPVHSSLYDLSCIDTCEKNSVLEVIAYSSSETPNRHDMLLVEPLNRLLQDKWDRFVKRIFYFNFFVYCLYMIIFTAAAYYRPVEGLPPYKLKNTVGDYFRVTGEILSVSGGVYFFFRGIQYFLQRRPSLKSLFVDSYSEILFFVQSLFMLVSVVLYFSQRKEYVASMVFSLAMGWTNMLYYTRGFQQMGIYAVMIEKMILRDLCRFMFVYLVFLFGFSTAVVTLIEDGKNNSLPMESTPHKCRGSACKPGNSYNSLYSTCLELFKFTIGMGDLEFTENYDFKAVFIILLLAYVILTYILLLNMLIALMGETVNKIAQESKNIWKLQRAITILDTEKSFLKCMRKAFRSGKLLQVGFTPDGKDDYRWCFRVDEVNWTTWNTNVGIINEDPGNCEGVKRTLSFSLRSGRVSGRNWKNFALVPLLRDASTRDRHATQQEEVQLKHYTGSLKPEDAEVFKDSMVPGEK
Description: as §1, §2
This assay was performed similarly to the human assay described above, but using HEK293 cells transfected with rat TRPV1 (rTRPV1/HEK293).
as §3

Row | Compound | IC50 [1] [µM] | IC50 [2] [µM]
1 | Cc1nc(NC2CCC(C(C)(C)C)CC2)c2nc(Nc3c(Cl)cccc3Cl)sc2n1 (mixture of isomers) [Example 8, N^7-(4-tert-Butyl-cyclohexyl)-N^2-(2,6-dichloro-phenyl)-5-methyl-thiazolo[5,4-d]pyrimidine-2,7-diamine] | 1.09 | 0.07
2 | Cc1nc(NC2CCC(C(C)(C)C)CC2)c2nc(Nc3c(C)cccc3C)sc2n1 (mixture of isomers) [Example 249, N^7-(4-tert-Butyl-cyclohexyl)-N^2-(2,6-dimethyl-phenyl)-5-methyl-thiazolo[5,4-d]pyrimidine-2,7-diamine] | 4.37 | 1.01
3 | CC(C)C1CCCN1c1nc(Nc2ccc(C(F)(F)F)cc2)c2nc(Nc3c(Cl)cccc3Cl)sc2n1 (racemic) [Example 89, (racemic)-N^2-(2,6-Dichloro-phenyl)-5-(2-isopropyl-pyrrolidin-1-yl)-N^7-(4-trifluoromethyl-phenyl)-thiazolo[5,4-d]pyrimidine-2,7-diamine] | 0.007 | 0.002
4 | CC1CCCN1c1nc(Nc2ccc(C(F)(F)F)cc2)c2nc(Nc3c(Cl)cccc3Cl)sc2n1 (racemic) [Example 105, (racemic)-N^2-(2,6-Dichloro-phenyl)-5-(2-methyl-pyrrolidin-1-yl)-N^7-(4-trifluoromethyl-phenyl)-thiazolo[5,4-d]pyrimidine-2,7-diamine] | 0.024 | 0.017
5 | CC1CCCN1c1nc(Nc2ccc(S(C)(=O)=O)cc2)c2nc(Nc3c(Cl)cccc3Cl)sc2n1 (racemic) [Example 117, (racemic)-N^2-(2,6-Dichloro-phenyl)-N^7-(4-methanesulfonyl-phenyl)-5-(2-methyl-pyrrolidin-1-yl)-thiazolo[5,4-d]pyrimidine-2,7-diamine] | 0.05 | 0.007
6 | CC(C)C1CCCN1c1nc(Nc2ccc(C(F)(F)F)c(Cl)c2)c2nc(Nc3c(Cl)cccc3Cl)sc2n1 (racemic) [Example 118, (racemic)-N^7-(3-Chloro-4-trifluoromethyl-phenyl)-N^2-(2,6-dichloro-phenyl)-5-(2-isopropyl-pyrrolidin-1-yl)-thiazolo[5,4-d]pyrimidine-2,7-diamine] | 0.056 | 0.018
7 | CC1CCCN1c1nc(Nc2ccc(C(F)(F)F)c(Cl)c2)c2nc(Nc3c(Cl)cccc3Cl)sc2n1 (racemic) [Example 130, (racemic)-N^7-(3-Chloro-4-trifluoromethyl-phenyl)-N^2-(2,6-dichloro-phenyl)-5-(2-methyl-pyrrolidin-1-yl)-thiazolo[5,4-d]pyrimidine-2,7-diamine] | 0.17 | 0.087
8 | CC1CCCCN1c1nc(Nc2ccc(C(F)(F)F)c(Cl)c2)c2nc(Nc3c(Cl)cccc3Cl)sc2n1 (racemic) [Example 136, (racemic)-N^7-(3-Chloro-4-trifluoromethyl-phenyl)-N^2-(2,6-dichloro-phenyl)-5-(2-methyl-piperidin-1-yl)-thiazolo[5,4-d]pyrimidine-2,7-diamine] | 0.205 | 0.025
9 | Cc1cccc(C)c1Nc1nc2c(Nc3ccc(C(C)O)cc3)ncnc2s1 (racemic) [Example 140, (racemic)-1-{4-[2-(2,6-Dimethyl-phenylamino)-thiazolo[5,4-d]pyrimidin-7-ylamino]-phenyl}-ethanol] | 0.324 | 0.185
10 | Cc1nc(Nc2ccc([S+](C)[O-])cc2)c2nc(Nc3c(C)cccc3C)sc2n1 (racemic) [Example 143, (racemic)-N^2-(2,6-Dimethyl-phenyl)-N^7-(4-methanesulfinyl-phenyl)-5-methyl-thiazolo[5,4-d]pyrimidine-2,7-diamine] | 0.423 | 0.279
11 | OCC1CN(c2nc(Nc3ccc(C(F)(F)F)cc3)c3nc(Nc4c(Cl)cccc4Cl)sc3n2)CCO1 (racemic) [Example 146, (racemic)-{4-[2-(2,6-Dichloro-phenylamino)-7-(4-trifluoromethyl-phenylamino)-thiazolo[5,4-d]pyrimidin-5-yl]-morpholin-2-yl}-methanol] | 0.646 | 0.319
12 | Cc1cccc(C)c1Nc1nc2c(Nc3ccc(OC4CCOC4)cc3)ncnc2s1 (racemic) [Example 154, (racemic)-N^2-(2,6-Dimethyl-phenyl)-N^7-[4-(tetrahydro-furan-3-yloxy)-phenyl]-thiazolo[5,4-d]pyrimidine-2,7-diamine] | 1.52 | 1.86
13 | OCC1CN(c2nc(Nc3ccc(C(F)(F)F)c(Cl)c3)c3nc(Nc4c(Cl)cccc4Cl)sc3n2)CCO1 (racemic) [Example 155, (racemic)-{4-[7-(3-Chloro-4-trifluoromethyl-phenylamino)-2-(2,6-dichloro-phenylamino)-thiazolo[5,4-d]pyrimidin-5-yl]-morpholin-2-yl}-methanol] | 1.54 | 0.414
14 | CC(C)C1CCCN1c1nc(Nc2ccc(S(C)(=O)=O)cc2)c2nc(Nc3c(Cl)cccc3Cl)sc2n1 (racemic) [Example 177, (racemic)-N^2-(2,6-Dichloro-phenyl)-5-(2-isopropyl-pyrrolidin-1-yl)-N^7-(4-methanesulfonyl-phenyl)-thiazolo[5,4-d]pyrimidine-2,7-diamine] | 0.021 | 0.003
15 | CC1CCCCN1c1nc(Nc2ccc(S(C)(=O)=O)cc2)c2nc(Nc3c(Cl)cccc3Cl)sc2n1 (racemic) [Example 179, (racemic)-N^2-(2,6-Dichloro-phenyl)-N^7-(4-methanesulfonyl-phenyl)-5-(2-methyl-piperidin-1-yl)-thiazolo[5,4-d]pyrimidine-2,7-diamine] | 0.159 | 0.012
16 | CC(CO)Nc1nc(Nc2ccc(C(F)(F)F)cc2)c2nc(Nc3c(Cl)cccc3Cl)sc2n1 (racemic) [Example 186, (racemic)-2-[2-(2,6-Dichloro-phenylamino)-7-(4-trifluoromethyl-phenylamino)-thiazolo[5,4-d]pyrimidin-5-ylamino]-propan-1-ol] | 0.642 | 0.666
17 | CC1CCCCN1c1nc(Nc2ccc(C(F)(F)F)cc2)c2nc(Nc3c(Cl)cccc3Cl)sc2n1 (racemic) [Example 191, (racemic)-N^2-(2,6-Dichloro-phenyl)-5-(2-methyl-piperidin-1-yl)-N^7-(4-trifluoromethyl-phenyl)-thiazolo[5,4-d]pyrimidine-2,7-diamine] | 0.014 | 0.056
18 | Cc1cccc(C)c1Nc1nc2c(NC3CCC(C(C)(C)C)CC3)ncnc2s1 (single isomer, unassigned) [Example 248, N^7-(4-tert-Butyl-cyclohexyl)-N^2-(2,6-dimethyl-phenyl)-thiazolo[5,4-d]pyrimidine-2,7-diamine] | 1.1 | 0.24
19 | FC(F)(F)c1ccc(Nc2ncnc3sc(Nc4c(Cl)cccc4Cl)nc23)cc1 [Example 1, N^2-(2,6-Dichloro-phenyl)-N^7-(4-trifluoromethyl-phenyl)-thiazolo[5,4-d]pyrimidine-2,7-diamine] | 0.012 | 0.003
20 | FC(F)(F)c1ccc(Nc2ncnc3sc(Nc4c(Cl)cccc4Cl)nc23)cn1 [Example 2, N^2-(2,6-Dichloro-phenyl)-N^7-(6-trifluoromethyl-pyridin-3-yl)-thiazolo[5,4-d]pyrimidine-2,7-diamine] | 0.014 | 0.004
21 | CC(C)(C)c1ccc(Nc2ncnc3sc(Nc4c(Cl)cccc4Cl)nc23)cc1 [Example 3, N^7-(4-tert-Butyl-phenyl)-N^2-(2,6-dichloro-phenyl)-thiazolo[5,4-d]pyrimidine-2,7-diamine] | 0.014 | 0.001
22 | FC(F)(F)c1ccc(Nc2ncnc3sc(Nc4c(Cl)cccc4Cl)nc23)cc1Cl [Example 4, N^7-(3-Chloro-4-trifluoromethyl-phenyl)-N^2-(2,6-dichloro-phenyl)-thiazolo[5,4-d]pyrimidine-2,7-diamine] | 0.015 | 0.008
23 | Cc1nc(Nc2ccc(C(F)(F)F)cc2)c2nc(Nc3c(Cl)cccc3Cl)sc2n1 [Example 5, N^2-(2,6-Dichloro-phenyl)-5-methyl-N^7-(4-trifluoromethyl-phenyl)-thiazolo[5,4-d]pyrimidine-2,7-diamine] | 0.003 | 0.002
24 | Cc1nc(Nc2ccc(C(F)(F)F)nc2)c2nc(Nc3c(Cl)cccc3Cl)sc2n1 [Example 6, N^2-(2,6-Dichloro-phenyl)-5-methyl-N^7-(6-trifluoromethyl-pyridin-3-yl)-thiazolo[5,4-d]pyrimidine-2,7-diamine] | 0.005 | 0.001
